Test results: patent publication US20110178053A1, “AZACARBOLINE DERIVATIVES, PREPARATION METHOD THEREOF AND THERAPEUTIC USE OF SAME” (SANOFI-AVENTIS, priority 2008, published 2011)

Assays:
PLK1 = PLK1 (Homo sapiens, UniProt P53350); assay: PLK1 biochemical inhibition
Pim-3 = molecular target: T1, Pim-3 (Homo sapiens, UniProt Q86V86); assay: TR-FRET assay, Pim-3 kinase (phosphorylation of Bad Ser112); format: biochemical; settings: TR-FRET; ATP 40 μM; read-out: IC50 Pim3
T1 construct: His6-labelled recombinant full-length human Pim-1, Pim-2 or Pim-3 protein; His6; made in house
Procedure, shortened: (§1)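 Recombinant His6-tagged full-length human Pim-1, Pim-2 or Pim-3 phosphorylates His6-tagged full-length human Bad at 40 μM ATP (apparent KM). Phospho-Ser112 is detected by TR-FRET between Eu-labelled anti-phosphoBad and APC-labelled anti-His6 (665/615 nm ratio); 10-point duplicate series, top typically 30 μM, IC50 from 4-parameter logistic fit.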

Pim-1 = molecular target: T2, Pim-1 (Homo sapiens, UniProt P11309); assay: TR-FRET assay, Pim-1 kinase (phosphorylation of Bad Ser112); format: biochemical; settings: TR-FRET; ATP 40 μM; read-out: IC50 Pim1
T2 construct: His6-labelled recombinant full-length human Pim-1, Pim-2 or Pim-3 protein; His6; made in house
T2 sequence (P11309 whole entry): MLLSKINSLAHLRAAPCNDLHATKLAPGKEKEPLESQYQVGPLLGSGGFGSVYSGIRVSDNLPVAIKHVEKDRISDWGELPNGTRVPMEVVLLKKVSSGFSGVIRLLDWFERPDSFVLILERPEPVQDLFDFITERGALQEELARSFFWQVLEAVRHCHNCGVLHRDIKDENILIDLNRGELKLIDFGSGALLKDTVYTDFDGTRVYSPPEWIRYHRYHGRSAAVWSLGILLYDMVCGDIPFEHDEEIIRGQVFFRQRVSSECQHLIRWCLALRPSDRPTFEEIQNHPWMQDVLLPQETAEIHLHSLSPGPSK
Procedure, shortened: as §1

Pim-2 = molecular target: T3, Pim-2 (Homo sapiens, UniProt Q9P1W9); assay: TR-FRET assay, Pim-2 kinase (phosphorylation of Bad Ser112); format: biochemical; settings: TR-FRET; ATP 40 μM; read-out: IC50 Pim2
T3 construct: His6-labelled recombinant full-length human Pim-1, Pim-2 or Pim-3 protein; His6; made in house
T3 sequence (Q9P1W9 whole entry): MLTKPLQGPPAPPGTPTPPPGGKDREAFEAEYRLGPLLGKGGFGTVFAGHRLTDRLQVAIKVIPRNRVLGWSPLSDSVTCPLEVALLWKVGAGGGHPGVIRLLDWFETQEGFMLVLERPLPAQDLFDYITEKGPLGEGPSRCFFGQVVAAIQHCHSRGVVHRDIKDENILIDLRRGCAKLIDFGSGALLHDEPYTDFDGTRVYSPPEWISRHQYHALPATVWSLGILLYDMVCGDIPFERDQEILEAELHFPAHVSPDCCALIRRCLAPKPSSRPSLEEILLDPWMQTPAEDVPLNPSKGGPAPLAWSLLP
Procedure, shortened: as §1

PI3K = PI3K biochemical inhibition
KG-1a = assay: Cell viability assay (CellTiter-Blue), KG-1a; format: cell-based; settings: Homo sapiens; KG-1a cells; cell proliferation/viability; read-out: EC50 KG-1a μM (leukaemia)
Text: (§2) The representative compounds of the invention are also screened as regards their effects on cell proliferation and viability using a variety of human tumour cell lines, which are representative of various pathological indications. These cell lines include: • Models of haematological cancers: • TF-1 (acute myelogenic leukaemia; AML M6 at the time of diagnosis); • KG-1 (AML; erythroleukaemia evolving into AML); • KG-1a (AML; sub-clone derived from immature KG-1); • EOL-1 (AML; eosinophilic leukaemia); • PL-21 (AML; M3); • ML-2 (AML; T-NHL evolving into T-ALL evolving into AML M4); • HL-60 (AML, M3); • Kasumi-1 (AML); • GDM-1 (AML); • K-562 (CML—chronic myelogenic leukaemia; blastic crisis); • JURL-MK1 (CML; blastic crisis); • DND-41 (T-ALL—-cell acute lymphoblastic leukaemia); • Jurkat (T-ALL); NALM-6 (B-ALL—B-cell ALL); • CEM (ALL; lymphosarcoma evolving into ALL); • Jeko-1 (B-NHL—B-cell non-Hodgkin lymphoma; mantle-cell lymphoma derived from a variant with large cells as a leukaemic transformation); • WSU-DLCL2 (B-NHL; large B-cell diffuse lymphoma); • RL (B-NHL; undifferentiated diffuse); • OCI-Ly10 (B-NHL); • DoHH-2 (B-NHL); • RPMI-8226 (MM—multiple myeloma); • JVM-2 (B-CLL—B-cell chronic lymphocytic leukaemia); and • JVM-3 (B-CLL) • MV4-11 (AML) • MOLM13 (AML). • Solid tumour models: • HCT-116 (bowel cancer); • HT-29 (bowel cancer); • HC-15 (bowel cancer); • H460 (lung cancer; non-small-cell lung cancer); • A375 (melanoma); • B16F10 (melanoma); • MDA-A1 (breast cancer); • MDA-MB231 (breast cancer); • MDA-MB231 adr (breast cancer); • PANC-1 (pancreatic cancer); and • PC-3 (prostate cancer).
(§3) In order to measure the viability, the tumour cells are incubated in a 96-well or 384-well format for 48, 72 or 96 hours, preferably 72 hours, with a compound of the invention at dilutions of a factor 3 with, in general, nine doses in total, the highest dose being equal to 10 μM or 30 μM. The cell viability is evaluated by adding CellTiter-Blue® (Promega, Madison, Wis., United States) for 4 hours and end-point readings are taken using a SpectraMax Genmini EM (Molecular Devices, Sunnyvale, Calif., United States). The CellTiter-Blue® cell viability assay measures the ability of the cells in culture to reduce resazurin to resorufin, the fluorescence signal intensity being directly proportional to the number of live cells.

MV4-11 = assay: Cell viability assay (CellTiter-Blue), MV4-11; format: cell-based; settings: Homo sapiens; MV4-11 cells; cell proliferation/viability; read-out: IC50 MV4-11 μM (myeloma)
Text: as §2, §3

EOL-1 = assay: Cell viability assay (CellTiter-Blue), EOL-1; format: cell-based; settings: Homo sapiens, EOL1, read-out: EC50 EOL-1 μM (lymphoma); EOL-1 cells; cell proliferation/viability
Text: as §2, §3

MOLM-13 = assay: Cell viability assay (CellTiter-Blue), MOLM-13; format: cell-based; settings: Homo sapiens; MOLM-13 cells; cell proliferation/viability; read-out: IC50 MOLM-13 μM (myeloma)
Text: as §2, §3

HCT116 = assay: Cell viability assay (CellTiter-Blue), HCT116; format: cell-based; settings: Homo sapiens, HCT-116; HCT116 cells; cell proliferation/viability; read-out: EC50 HCT116 μM (bowel)
Experimental: (§4) The representative compounds of the invention are also screened as regards their effects on cell proliferation and viability using a variety of human tumour cell lines, which are representative of various pathological indications. […]
as §3

B16F10 = assay: Cell viability assay (CellTiter-Blue), B16F10; format: cell-based, human; settings: Mus musculus, B16-F10; B16F10 cells; cell proliferation/viability; read-out: EC50 B16F10 μM (melanoma)
Experimental: as §4, §3

H460 = assay: Cell viability assay (CellTiter-Blue), H460; format: cell-based; settings: Homo sapiens, NCI-H460; H460 cells; cell proliferation/viability; read-out: EC50 H460 μM (lung)
Experimental: as §4, §3

Chain of PLK1 (P53350 whole entry, species assumed): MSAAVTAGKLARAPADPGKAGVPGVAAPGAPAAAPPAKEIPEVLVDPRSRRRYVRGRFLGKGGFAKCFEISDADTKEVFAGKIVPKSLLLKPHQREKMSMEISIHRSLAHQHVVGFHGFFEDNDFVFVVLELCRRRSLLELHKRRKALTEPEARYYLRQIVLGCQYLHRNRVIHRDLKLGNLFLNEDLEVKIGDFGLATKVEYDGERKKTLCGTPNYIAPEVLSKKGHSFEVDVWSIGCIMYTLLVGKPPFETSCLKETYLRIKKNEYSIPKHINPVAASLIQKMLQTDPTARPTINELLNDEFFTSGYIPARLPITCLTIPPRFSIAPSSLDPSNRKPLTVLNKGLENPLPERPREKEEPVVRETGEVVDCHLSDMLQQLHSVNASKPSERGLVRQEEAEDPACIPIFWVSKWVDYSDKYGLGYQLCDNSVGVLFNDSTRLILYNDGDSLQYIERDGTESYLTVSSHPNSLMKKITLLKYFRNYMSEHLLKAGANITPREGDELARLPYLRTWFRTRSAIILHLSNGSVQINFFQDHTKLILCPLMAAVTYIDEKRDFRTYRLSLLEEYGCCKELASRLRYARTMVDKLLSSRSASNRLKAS

| IC50 (PLK1) [nM] | IC50 (Pim-3) [nM] | IC50 (Pim-1) [nM] | IC50 (Pim-2) [nM] | IC50 (PI3K) [nM] | IC50 (MV4-11) [nM] | IC50 (MOLM-13) [nM] | EC50 (HCT116) [nM] | EC50 (B16F10) [nM] | EC50 (H460) [nM] | Compound | EC50 (KG-1a) [µM] | EC50 (EOL-1) [nM] |
| --- | --- | --- | --- | --- | --- | --- | --- | --- | --- | --- | --- | --- |
| 1 to 100 | 100 to 1000 | 1 to 100 | > 5000 | 1000 to 5000 | – | – | – | – | – | O=S(=O)(NC1CC1)c1ccc(-c2c(F)cnc3[nH]c4cnc(-c5cccnc5)cc4c23)cc1 [Example 28, N-cyclopropyl-4-(3-fluoro-6-(pyrid-3-yl)-9H-pyrrolo[2,3-b:5,4-c′]-dipyrid-4-yl]benzene-sulfonamide] | – | – |
| 1000 to 5000 | 100 to 1000 | 1 to 100 | > 5000 | > 5000 | – | – | – | – | – | COc1cc(OC)cc(-c2c(F)cnc3[nH]c4cnc(-c5cccnc5)cc4c23)c1 [Example 23, 4-(3,5-dimethoxy-phenyl)-3-fluoro-6-(pyrid-3-yl)-9H-pyrrolo-[2,3-b:5,4-c′]dipyridine] | – | – |
| 100 to 1000 | 1 to 100 | 1 to 100 | 1000 to 5000 | 1000 to 5000 | – | – | – | – | – | CCN(CC)CCN1CCN(c2c(F)cnc3[nH]c4cnc(-c5cccnc5)cc4c23)CC1 [Example 79, N,N-diethyl-2-{4-[3-fluoro-6-(pyrid-3-yl)-9H-pyrrolo[2,3-b:5,4-c′]dipyrid-4-yl]-piperazin-1-yl}-ethanamine] | – | – |
| 1000 to 5000 | 100 to 1000 | 1 to 100 | 1000 to 5000 | – | 1000 to 5000 | 1000 to 5000 | – | – | – | Cn1cc(-c2cc3c(cn2)[nH]c2ncccc23)cn1 [Example 39, 6-(1-Methyl-1H-pyrazol-4-yl)-9H-pyrrolo[2,3-b:5,4-c′]dipyridine] | 0.1 to 1 | 100 to 1000 |
| 100 to 1000 | 1 to 100 | 1 to 100 | 100 to 1000 | > 5000 | 100 to 1000 | – | – | – | – | Fc1cnc2[nH]c3cnc(-c4cccnc4)cc3c2c1N1CCN(CCCN2CCCCC2)CC1 [Example 86, 3-fluoro-4-{4-[3-(piperid-1-yl)propyl]piperazin-1-yl}-6-(pyrid-3-yl)-9H-pyrrolo-[2,3-b:5,4-c′]-dipyridine] | – | 100 to 1000 |
| – | 100 to 1000 | 1 to 100 | > 5000 | > 5000 | – | – | – | – | – | Fc1cnc2[nH]c3cnc(-c4cccnc4)cc3c2c1/C=C/C1CC1 [Example 27, 4-[(E)-2-cyclopropyl-ethenyl]-3-fluoro-6-(pyrid-3-yl)-9H-pyrrolo-[2,3-b:5,4-c′]dipyridine] | – | – |
| 1 to 100 | 1 to 100 | 1 to 100 | 1 to 100 | 1 to 100 | 1 to 100 | 1 to 100 | – | – | – | COc1cnc2[nH]c3cnc(-c4cccnc4)cc3c2c1-c1ccc(NS(C)(=O)=O)cc1 [Example 44, N-[4-(3-methoxy-6-(pyrid-3-yl)-9H-pyrrolo[2,3-b:5,4-c′]dipyrid-4-yl)phenyl]methane-sulfonamide] | – | 1 to 100 |
| – | 100 to 1000 | 1 to 100 | 1000 to 5000 | 100 to 1000 | – | – | – | – | – | Oc1cccc(-c2c(F)cnc3[nH]c4cnc(-c5cccnc5)cc4c23)c1 [Example 26] | – | – |

More lines, now with the values behind:

| Compound | IC50 (PLK1) [nM] | IC50 (Pim-3) [nM] | IC50 (Pim-1) [nM] | IC50 (Pim-2) [nM] | IC50 (PI3K) [nM] | IC50 (MV4-11) [nM] | IC50 (MOLM-13) [nM] | EC50 (HCT116) [nM] | EC50 (B16F10) [nM] | EC50 (H460) [nM] | EC50 (KG-1a) [µM] | EC50 (EOL-1) [nM] |
| --- | --- | --- | --- | --- | --- | --- | --- | --- | --- | --- | --- | --- |
| NS(=O)(=O)c1cccc(-c2c(F)cnc3[nH]c4cnc(-c5cccnc5)cc4c23)c1 [Example 21, 3-[3-Fluoro-6-(pyrid-3-yl)-9H-pyrrolo[2,3-b:5,4-c′]dipyrid-4-yl]-benzenesulfonamide] | 1 to 100 | 100 to 1000 | 1 to 100 | > 5000 | 1000 to 5000 | – | – | – | – | – | – | – |
| CC(C)(CO)COC(=O)c1cnc2[nH]c3cnc(-c4cccnc4)cc3c2c1 [Example 15, 3-hydroxy-2,2-dimethylpropyl 6-(pyrid-3-yl)-9H-pyrrolo[2,3-b:5,4-c′]-dipyridine-3-carboxylate] | > 5000 | 1 to 100 | 1 to 100 | 100 to 1000 | – | 100 to 1000 | – | – | – | – | 0.1 to 1 | 100 to 1000 |
| CCCN(C)c1cnc2[nH]c3cnc(-c4cccnc4)cc3c2c1 [Example 10, N-methyl-N-propyl-6-(pyrid-3-yl)-9H-pyrrolo[2,3-b:5,4-c′]dipyrid-3-amine] | 100 to 1000 | 1 to 100 | 1 to 100 | 1000 to 5000 | – | 100 to 1000 | – | – | – | – | 0.1 to 1 | 100 to 1000 |
| c1cncc(-c2cc3c(cn2)[nH]c2ncccc23)c1 [Example 1, 6-pyrid-3-yl-9H-pyrrolo[2,3-b:5,4-c′]dipyridine] | 100 to 1000 | 100 to 1000 | 1 to 100 | 1000 to 5000 | – | 1000 to 5000 | – | – | – | – | 1 to 5 | 1000 to 5000 |
| c1cncc(-c2cc3c(cn2)[nH]c2ncc(N4CCOCC4)cc23)c1 [Example 14, 3-(morpholin-4-yl)-6-(pyrid-3-yl)-9H-pyrrolo[2,3-b:5,4-c′]dipyridine] | > 5000 | 1 to 100 | 1 to 100 | 1000 to 5000 | – | 100 to 1000 | – | – | – | – | 1 to 5 | 100 to 1000 |
| CS(=O)(=O)Nc1ccc(-c2c(F)cnc3[nH]c4cnc(-c5cccnc5)cc4c23)cc1 [Example 22, N-[4-(3-Fluoro-6-(pyrid-3-yl)-9H-pyrrolo[2,3-b:5,4-c′]dipyrid-4-yl)-phenyl]methanesulfon-amide] | 1 to 100 | 1 to 100 | 1 to 100 | 100 to 1000 | 100 to 1000 | 1 to 100 | 1 to 100 | 1 to 100 | 1 to 100 | 1 to 100 | – | 1 to 100 |
| CC(C)(C)OC(=O)c1cnc2[nH]c3cnc(-c4cccnc4)cc3c2c1 [Example 5, 2-methylpropan-2-yl 6-(pyrid-3-yl)-9H-pyrrolo[2,3-b:5,4-c′]dipyridine-3-carboxylate] | > 5000 | 100 to 1000 | 1 to 100 | > 5000 | – | 100 to 1000 | – | – | – | – | 0.1 to 1 | 100 to 1000 |
| COc1ccnc2[nH]c3cnc(-c4cccnc4)cc3c12 [Example 8, 4-methoxy-6-(pyrid-3-yl)-9H-pyrrolo-[2,3-b:5,4-c′]-dipyridine] | 100 to 1000 | 100 to 1000 | 1 to 100 | 1000 to 5000 | – | 100 to 1000 | 100 to 1000 | – | – | – | – | 100 to 1000 |
